What was measured:
[1] = system: tubulin and actin networks in Hela cells; assay: Immunostaining and confocal microscopy of Hela cells; format: cell-based, human; details: 50 μM, 30 min
Method: FIG. 10: Bragsin2 has no effect on the tubulin and actin networks in Hela cells. HeLa cells were treated with either DMSO (0.25%) or Bragsin2 (50 μM) for 30 min, immunostained for α-tubulin (green channel) or F-actin (magenta channel) and analysed by confocal microscopy.
Hela cells were grown in Dulbecco's modified Eagle's medium supplemented with Glutamax™ and 10% fetal bovine serum (Invitrogen). For immunofluorescence studies, cells were grown on Labtek glass slides (Nunc) and transfected for 18 to 24 h using Lipofectamine 2000 (Invitrogen), according to the supplier's instructions. […]
Immunostaining procedure was as described in (Viaud, J. et al. Structure-based discovery of an inhibitor of Arf activation by Sec7 domains through targeting of protein-protein complexes. Proc Natl Acad Sci USA 104, 10370-5 (2007)) except that secondary antibody incubation was performed for 1h using Alexa 488-conjugated goat anti-mouse (1:600) or donkey anti-sheep (1:500) IgG and Alexa 647-conjugated phalloidin (1:100). […] Images were bidirectionally recorded using an inverted Leica TCS SP8 laser-scanning confocal microscope with a 100× (N. A. 1.40) oil objective (HCX APO, Leica). Fluorochromes were detected sequentially using excitation laser lines at 488 nm (Alexa 488), 594 nm (mCherry) and 633 nm (Alexa 647). […]

[2] = target: T1, Sec7 domain of BIG1 (Homo sapiens, UniProt Q9Y6D6); assay: Nucleotide exchange fluorescence kinetics in solution, Sec7 domain with truncated Arf1; format: biochemical; details: 50 μM, no membranes
T1 construct: BIG1^Sec7 (691-889), BIG1^DcbHusSec7 (2-888); made in house
T1 sequence (Q9Y6D6 691-889): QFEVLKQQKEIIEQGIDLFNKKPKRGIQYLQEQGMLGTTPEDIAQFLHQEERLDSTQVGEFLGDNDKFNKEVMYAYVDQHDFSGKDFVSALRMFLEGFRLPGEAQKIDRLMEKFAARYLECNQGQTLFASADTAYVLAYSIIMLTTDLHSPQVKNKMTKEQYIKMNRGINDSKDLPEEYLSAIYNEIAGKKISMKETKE
Method: (§1) The effect of Bragsin1 on the GEF efficiency of representative human ArfGEFs was evaluated by fluorescence kinetics using highly purified recombinant Arf GTPases and ArfGEFs. In a first series of assays, the Sec7 domains of BIG1, a Golgi ArfGEF, and of ARNO, EFA6a and BRAG2, which function at the plasma membrane, were used. When tested in solution, Bragsin1 had no effect on the activation of Arf1 by any of these Sec7 domains (FIGS. 2a and 14). Separately, we reconstituted the activation of myristoylated Arf1 by the same ArfGEFs on liposomes using ArfGEF constructs that contain a membrane-binding domain (DCB-HUS domain for BIG1, PH domains for the other GEFs). […] BRAG2 activates several Arf isoforms, including the plasma membrane-located Arf6 isoform. […] Bragsin1 and Bragsin2 have the same IC50 towards BRAG2 ([…]) according to dose-response analysis, confirming that Bragsin1 and Bragsin2 can be used interchangeably (FIG. 2d). The specific inhibition of BRAG2 by Bragsin in vitro predicts that BRAG2 silencing by siRNA should yield the same phenotype as treatment by the small molecule. Silencing of BRAG2 induced the redistribution of TGN46 into tubular or punctate structures, which phenocopied the effects induced by Bragsin (FIGS. 2e, 17 and 18). […] Silencing of ARNO, which is located at the plasma membrane, had no effect on TGN46 distribution. Overexpression of BRAG2-mCherry rescued the dispersion of the TGN46 structure induced by Bragsin, which is consistent with the silencing experiments (FIG. 2f). Bragsin is a specific inhibitor of the ArfGEF BRAG2 in vitro and in cells according to these experiments. These oexperiments identify a mechanism of inhibition that requires the membrane to manifests itself. […]
(§2) Nucleotide exchange kinetics were monitored by tryptophan fluorescence with excitation/emission wavelengths of 292/340 nm using a Cary Eclipse fluorimeter (Varian) at 37° C. and under continuous stirring as described in ^50,51. For specificity assays, 50 μM of Bragsin1 or 0.25% DMSO were incubated for 2 min at 37° C. in HKM buffer (50 mM HEPES pH 7.4, 120 mM potassium acetate, 1 mM MgCl2 and 1 mM DTT) with either 1 μM of N-terminally truncated Arf-GDP and 100 nM of indicated Sec7 domain (in solution) or 0.4 μM of ^myrArf1 in the presence of 100 μM of liposomes and 2 to 100 nM of ArfGEFs as described in (Benabdi, S. et al. Biochemistry 56, 5125-5133 (2017) and Peurois, F. et al. Biochem J 474, 1259-1272 (2017). Nucleotide exchange rates (kobs) were determined from monoexponential fits and means are given as the percentage of control activity±SD. […]

[3] = target: T2, Sec7 domain of BRAG2 (Homo sapiens, UniProt Q6DN90); assay: as above; format: biochemical; details: 50 μM, no membranes
T2 construct: human BRAG2^Sec7 (390-594) and BRAG2^Sec7PH (390-811); made in house
T2 sequence (Q6DN90 512-716): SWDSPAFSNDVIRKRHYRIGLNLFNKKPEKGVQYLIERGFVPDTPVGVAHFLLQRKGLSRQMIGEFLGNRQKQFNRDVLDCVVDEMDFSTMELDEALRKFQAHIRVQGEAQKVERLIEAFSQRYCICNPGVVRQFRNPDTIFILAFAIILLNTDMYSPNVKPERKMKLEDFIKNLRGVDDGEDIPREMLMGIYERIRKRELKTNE
Method: as §1, §2

[4] = target: T3, Sec7 domain of EFA6a (Homo sapiens, UniProt A5PKW4); assay: as above; format: biochemical; details: 50 μM, no membranes
T3 construct: human EFA6^Sec7 (527-727) and EFA6^Sec7PHCt (527-1024); made in house
T3 sequence (A5PKW4 527-727): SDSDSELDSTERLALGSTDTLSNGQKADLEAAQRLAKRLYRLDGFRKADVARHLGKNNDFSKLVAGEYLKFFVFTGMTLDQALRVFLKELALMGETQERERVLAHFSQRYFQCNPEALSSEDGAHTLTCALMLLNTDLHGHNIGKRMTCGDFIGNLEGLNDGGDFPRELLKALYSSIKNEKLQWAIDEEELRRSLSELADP
Method: as §1, §2

Row | SMILES | Effect on tubulin and actin networks [1] | Effect on activation of Arf1 by Sec7 domain in solution [2] | Effect on activation of Arf1 by Sec7 domain in solution [3] | Effect on activation of Arf1 by Sec7 domain in solution [4]
1 | COc1ccc2oc(C(F)(F)F)cc(=O)c2c1[N+](=O)[O-] [Bragsin2, 6-methoxy-5-nitro-2-(trifluoromethyl)-4H-chromen-4-one] | no effect | – | – | –
2 | Cc1ccc2oc(C(F)(F)F)cc(=O)c2c1[N+](=O)[O-] [Bragsin1, 6-methyl-5-nitro-2-(trifluoromethyl)-4H-chromen-4-one] | – | no effect | no effect | no effect
